Where “and” joins values, the source holds several entries; their conditions need not be identical. Identical values can stand only once.

The subject of the assay is 958767-090-R-J1-PDC spheroid growth. Briefly: Anticancer human tumor 958767-090-R-J1-PDC patient-derived head and neck squamous carcinoma cell line growth inhibition [IpAb]. The settings on record: spheroids with HUVEC and MSC; for viability, T/C: stronger effect = lower value. From the text: Combinatorial screen of targeted agents with ipatasertib and abemaciclib in multi-cell type tumor spheroids
A high-throughput screen of multi-cell type tumor spheroids was designed to identify active combinations of targeted small molecules and ipatasertib or abemaciclib. Complex spheroids include a stromal component modeled by human endothelial cells (HUVEC) and fibroblasts modeled by human mesenchymal stem cells (MSCs). The concentration ranges selected for each drug and investigational agent were based upon clinically achievable concentrations if the clinical Cmax of the agent was known.
Compounds. The drugs and investigational agents: ipatasertib (NSC767898), abemaciclib(NSC768073), selumetinib (NSC741078), trametinib (758246), adavosertib (NSC754352), everolimus (NSC733504), sapanisertib (NSC764658), vemurafenib (NSC761431), venetoclax (NSC766270), copanlisib (NSC809693), apelisib (NSC765974), palbociblib (NSC758247), vemurafenib (NSC761431), dabrafenib (NSC764134), ravoxertinib (NSC781343), BMS-387032 (NSC767048), sotorasib (NSC818433), talazoparib (NSC767125) and afursertib (NSC778305), were obtained from the National Cancer Institute (NCI) Developmental Therapeutics Program Chemical Repository. The FDA-approved anticancer drug set is available from the NCI Developmental Therapeutics Program. […] The stock solutions were prepared in dimethyl sulfoxide (DMSO, Sigma-Aldrich, St. Louis, MO, cat. D2650) at 800-fold the tested concentration and stored at -70 degrees C prior to their use. All drugs and investigational agents were tested over a range starting from a high concentration at or near the clinical Cmax and decreasing in half-log increments. If the clinical Cmax for an agent had not been determined, the highest concentration tested was 10 microM.
NCI60 Cell Culture. NCI60 cell lines were obtained from the NCI Developmental Therapeutics Program Tumor Repository. For each lot of cells, the Repository performed Applied Biosystems AmpFLSTR Identifiler testing with PCR amplification to confirm consistency with the published Identifier STR profile for each cell line. Cells were kept in continuous culture for no more than 20 passages. The optimal seeding densities for each of the cell lines at each time point assessed were determined prior to performing the concentration response studies. Briefly, the NCI60 human tumor lines were grown as monolayers in RPMI 1640 medium supplemented with 10% FBS and 2 mmol/L L-glutamine.
An additional 9 lines were from the NCI60 cell line panel including MDA-MB-231 breast carcinoma, MDA-MB-468 breast carcinoma, MCF7 breast carcinoma, Hs578T breast carcinoma, MALME-3M melanoma, SK-MEL-2 melanoma, SK-OV-3 ovarian carcinoma, DU-145 prostate carcinoma, PC-3 prostate carcinoma, all cell lines along with major genetic alterations are listed on Table 2. Pooled donor human umbilical vein endothelial cells (HUVEC, Lonza, cat. CC-2519) and human mesenchymal stem cells (hMSC, Lonza, cat. PT-2501) were purchased from Lonza (Walkersville, MD).
PDMR cell lines were grown in complete medium (DC medium): Dulbecco's modified Eagle's medium (DMEM)/F12 supplemented with 5% fetal bovine serum (FBS), 2 mM L-glutamine, 100 U/mL penicillin and 100 µg/ml streptomycin, 0.4 µg/ml hydrocortisone, 10 ng/ml epidermal growth factor (EGF) recombinant human protein, 24 µg/mL adenine, and 0.1 mg/mL primocin. During culture from frozen stock vials, PDMR cells were cultured in the same medium containing 10 µM Y-27632 (see Table 3). The PDCs were cultured in complete DMEM/F12 media without 10 microM Y-27632 dihydrochloride for at least two passages prior to the screen. The pooled donor HUVEC and hMSC were cultured in endothelial cell growth medium 2 (PromoCell, Heidelberg, Germany, cat. C-22011) and mesenchymal stem cell growth medium 2 (PromoCell, cat. C-28009), respectively. For all experiments, HUVEC and hMSC were used at passages </=5.
[…]

Where [1] appears, read: curve of first compound, second compound 0.1 µM.
The mark [2] stands for this setting: curve of first compound, second compound 0.316 µM.
The mark [3] stands for this setting: curve of first compound, second compound 1 µM.
The mark [4] stands for this setting: second compound 0.1 µM, first compound 0.0316 µM.
The mark [5] stands for this setting: second compound 0.1 µM, first compound 0.1 µM.
Where [6] appears, read: second compound 0.1 µM, first compound 0.316 µM.
The mark [7] stands for this setting: second compound 0.1 µM, first compound 1 µM.
Setting [8] is: second compound 0.1 µM, first compound 3.16 µM.
The mark [9] stands for this setting: second compound 0.1 µM, first compound 10 µM.
Where [10] appears, read: second compound 0.316 µM, first compound 0.0316 µM.
Setting [11] is: second compound 0.316 µM, first compound 0.1 µM.
The mark [12] stands for this setting: second compound 0.316 µM, first compound 0.316 µM.
Setting [13] is: second compound 0.316 µM, first compound 1 µM.
[14] abbreviates: second compound 0.316 µM, first compound 3.16 µM.
[15] abbreviates: second compound 0.316 µM, first compound 10 µM.
[16] abbreviates: second compound 1 µM, first compound 0.0316 µM.
Setting [17] is: second compound 1 µM, first compound 0.1 µM.
[18] abbreviates: second compound 1 µM, first compound 0.316 µM.
Setting [19] is: second compound 1 µM, first compound 1 µM.
The mark [20] stands for this setting: second compound 1 µM, first compound 3.16 µM.
[21] abbreviates: second compound 1 µM, first compound 10 µM.
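Note: spheroids exposed to agents for 7 days.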
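Throughout, for viability, T/C: 100% = DMSO vehicle control wells.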

In general, viability, T/C refers to the result in the treated group divided by that in the control group, in per cent. A word on the IC50: it is the midpoint of a concentration-inhibition curve. As for `CCN1CCN(Cc2ccc(Nc3ncc(F)c(-c4cc(F)c5nc(C)n(C(C)C)c5c4)n3)nc2)CC1`, the viability, T/C is, setting by setting: (compound 0.1 µM) 63.6% [middle of 13 runs]; (compound 1 µM) 80.7% [middle of 12 runs]. In addition, the 50% inhibitory concentration (IC50) (compound alone, run of 06/01/2021) was over 1 µM.
For `Cn1ncc(Cl)c1-c1cc(C(=O)NC(CN)Cc2cccc(F)c2)sc1Cl` (stereo not given) + CC(C)NCC(C(=O)N1CCN(c2ncnc3c2C(C)CC3O)CC1)c1ccc(Cl)cc1, the IC50 was 1.21 µM under setting [1]; 0.952 µM under setting [2]; 1.02 µM under setting [3]; 0.113 µM (curve of first compound, second compound 3.16 µM); under 0.0316 µM (curve of first compound, second compound 10 µM). Moreover, the viability, T/C runs as follows: under setting [4], 70.3%; under setting [5], 70.3%; under setting [6], 54.5%; under setting [7], 59.3%; under setting [8], 32.8%; under setting [9], 0.14%. Moreover, the viability, T/C under setting [10] was 57.5%; the viability, T/C under setting [11] is 62.6%; the viability, T/C under setting [12] is 52.2%; the viability, T/C under setting [13] was 47.5%; the viability, T/C under setting [14] is 37.9%; the viability, T/C under setting [15] was 0.46%. Moreover, the viability, T/C is, setting by setting: under setting [16], 54.6%; under setting [17], 50.8%; under setting [18], 55.4%; under setting [19], 50%; under setting [20], 31.6%; under setting [21], 0.13%. Also, the viability, T/C was 53.1% (second compound 3.16 µM, first compound 0.0316 µM); 47.6% (second compound 3.16 µM, first compound 0.1 µM); 48.4% (second compound 3.16 µM, first compound 0.316 µM); 45.7% (second compound 3.16 µM, first compound 1 µM); 32.3% (second compound 3.16 µM, first compound 3.16 µM); 0.64% (second compound 3.16 µM, first compound 10 µM). Further, the viability, T/C reads like this: (second compound 10 µM, first compound 0.0316 µM) 42.5%; (second compound 10 µM, first compound 0.1 µM) 36.3%; (second compound 10 µM, first compound 0.316 µM) 39.8%; (second compound 10 µM, first compound 1 µM) 42.5%; (second compound 10 µM, first compound 3.16 µM) 22.2%; (second compound 10 µM, first compound 10 µM) 0.81%.
As to `Cc1nc(NC(=O)N2CCCC2C(N)=O)sc1-c1ccnc(C(C)(C)C(F)(F)F)c1` (stereo not given) + CCN1CCN(Cc2ccc(Nc3ncc(F)c(-c4cc(F)c5nc(C)n(C(C)C)c5c4)n3)nc2)CC1, the IC50 was 0.171 µM (curve of first compound, second compound 0.01 µM); 0.059 µM (curve of first compound, second compound 0.0316 µM); under 0.0316 µM under setting [1]; under 0.0316 µM under setting [2]; 0.141 µM under setting [3]. For the same molecule, the viability, T/C (second compound 0.01 µM, first compound 0.0316 µM) was 65.3%; the viability, T/C (second compound 0.01 µM, first compound 0.1 µM) was 56.4%; the viability, T/C (second compound 0.01 µM, first compound 0.316 µM) was 42.7%; the viability, T/C (second compound 0.01 µM, first compound 1 µM) was 31.7%; the viability, T/C (second compound 0.01 µM, first compound 3.16 µM) is 19.3%; the viability, T/C (second compound 0.01 µM, first compound 10 µM) is 11.2%. For the same molecule, the viability, T/C is, setting by setting: (second compound 0.0316 µM, first compound 0.0316 µM) 57.6%; (second compound 0.0316 µM, first compound 0.1 µM) 40.5%; (second compound 0.0316 µM, first compound 0.316 µM) 36.4%; (second compound 0.0316 µM, first compound 1 µM) 27.2%; (second compound 0.0316 µM, first compound 3.16 µM) 15.9%; (second compound 0.0316 µM, first compound 10 µM) 9.45%. For the same molecule, the viability, T/C reads like this: under setting [4], 49.9%; under setting [5], 43.3%; under setting [6], 34.9%; under setting [7], 24.9%; under setting [8], 15.8%; under setting [9], 9.36%. For the same molecule, the viability, T/C was 39.5% under setting [10]; 39.3% under setting [11]; 27.6% under setting [12]; 20.7% under setting [13]; 17.1% under setting [14]; 10.8% under setting [15]. The viability, T/C runs as follows: under setting [16], 62.6%; under setting [17], 56.2%; under setting [18], 38.3%; under setting [19], 31.5%; under setting [20], 19.9%; under setting [21], 13.2%.
On to `Cn1ncnc1[C@H]1c2n[nH]c(=O)c3cc(F)cc(c23)N[C@@H]1c1ccc(F)cc1`, for which the viability, T/C (compound 0.000316 µM) was 123% and 91.8%; the viability, T/C (compound 0.001 µM) was 81.7% and 109%; the viability, T/C (compound 0.00316 µM) is 80.4% and 90.1%; the viability, T/C (compound 0.01 µM) was 73.3% and 91.3%; the viability, T/C (compound 0.0316 µM) was 79.7% and 80.1%; the viability, T/C (compound 0.1 µM) was 70.6% and 68.1%. Moreover, where the note is “curve of compound”, the IC50 was over 0.1 µM.

(Values after PubChem BioAssay AID2060336 (Molecular Pharmacology Branch, DTP, NCI, 2025).)
